IC50 data for 27 compounds are collected here from US11987588B2, “Modulators of the beta-3 adrenergic receptor useful for the treatment or prevention of heart failure and disorders related thereto” (Arena Pharmaceuticals, Inc., priority 2017, dated 2024).

Chain of Beta-3 Adrenergic Receptor (P13945 whole entry, species assumed): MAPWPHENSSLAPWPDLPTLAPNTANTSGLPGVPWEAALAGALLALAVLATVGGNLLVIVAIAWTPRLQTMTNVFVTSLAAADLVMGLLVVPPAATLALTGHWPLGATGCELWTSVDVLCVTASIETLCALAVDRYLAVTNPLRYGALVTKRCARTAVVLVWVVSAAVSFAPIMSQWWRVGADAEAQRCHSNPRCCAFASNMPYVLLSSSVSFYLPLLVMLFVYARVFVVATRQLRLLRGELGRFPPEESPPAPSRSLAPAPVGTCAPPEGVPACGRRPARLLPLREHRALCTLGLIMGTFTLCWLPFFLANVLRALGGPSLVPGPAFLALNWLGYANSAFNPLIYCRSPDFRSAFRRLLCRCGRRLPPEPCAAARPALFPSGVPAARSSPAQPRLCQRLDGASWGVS

The target of this assay is Beta-3 Adrenergic Receptor (Homo sapiens (Human), UniProt P13945). Kind of assay: Homogeneous Time-Resolved Fluorescence (HTRF) cAMP antagonist assay, IC50 determination. In kind it is cell-based. Particulars: CHO-K1 cells stably expressing recombinant receptor, isoproterenol at EC90. In outline:
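CHO-K1 cells stably expressing the recombinant receptor were preincubated with compound (10-point, 5-fold dilutions; top final typically 10 or 100 μM) in PBS with 1 mM IBMX, then stimulated with isoproterenol at its EC90 for 1 h at room temperature. cAMP was read by HTRF against an on-plate standard curve.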
By IC50 is commonly meant the concentration that gives 50% inhibition. As to `CNS(=O)(=O)c1cccc(OC[C@@H](O)CNC2COC3(CCN(S(=O)(=O)c4cccc5nsnc45)CC3)C2)c1` (stereo partly drawn) [Compound 128, 3-((2S)-3-(8-(benzo[c][1,2,5]thiadiazol-4-ylsulfonyl)-1-oxa-8-azaspiro[4.5]decan-3-ylamino)-2-hydroxypropoxy)-N-methylbenzenesulfonamide], the IC50 came to 11.4 nM.
Regarding `CNS(=O)(=O)c1cccc(OC[C@@H](O)CNC2COC3(CCN(S(=O)(=O)c4c(Cl)nc5sccn45)CC3)C2)c1` (stereo partly drawn) [Compound 129, 3-((2S)-3-(8-(6-chloroimidazo[2,1-b]thiazol-5-ylsulfonyl)-1-oxa-8-azaspiro[4.5]decan-3-ylamino)-2-hydroxypropoxy)-N-methylbenzenesulfonamide], the half-maximal inhibitory concentration (IC50) came out at 24.9 nM.
In the case of `CNS(=O)(=O)c1cccc(OC[C@@H](O)CNC2COC3(CCN(S(=O)(=O)c4ccc(Oc5ccccc5)nc4)CC3)C2)c1` (stereo partly drawn) [Compound 130, 3-((2S)-2-hydroxy-3-(8-(6-phenoxypyridin-3-ylsulfonyl)-1-oxa-8-azaspiro[4.5]decan-3-ylamino)propoxy)-N-methylbenzenesulfonamide] it was 8.32 nM.
In the case of `CNS(=O)(=O)c1cccc(OC[C@@H](O)CNC2COC3(CCN(S(=O)(=O)c4cn[nH]c4)CC3)C2)c1` (stereo partly drawn) [Compound 131, 3-((2S)-3-(8-(1H-pyrazol-4-ylsulfonyl)-1-oxa-8-azaspiro[4.5]decan-3-ylamino)-2-hydroxypropoxy)-N-methylbenzenesulfonamide] it was 84.7 nM; in that of `CNS(=O)(=O)c1cccc(OC[C@@H](O)CNC2COC3(CCN(S(=O)(=O)c4cnn(-c5ccccc5)c4C)CC3)C2)c1` (stereo partly drawn) [Compound 132, 3-((2S)-2-hydroxy-3-(8-(5-methyl-1-phenyl-1H-pyrazol-4-ylsulfonyl)-1-oxa-8-azaspiro[4.5]decan-3-ylamino)propoxy)-N-methylbenzenesulfonamide], 10.8 nM.
Consider `CNS(=O)(=O)c1cccc(OC[C@@H](O)CNC2COC3(CCN(S(=O)(=O)c4cc(C(F)(F)F)ccc4Cl)CC3)C2)c1` (stereo partly drawn) [Compound 133, 3-((2S)-3-(8-(2-chloro-5-(trifluoromethyl)phenylsulfonyl)-1-oxa-8-azaspiro[4.5]decan-3-ylamino)-2-hydroxypropoxy)-N-methylbenzenesulfonamide], for which the half-maximal inhibitory concentration (IC50) worked out at 65.4 nM.
In the case of `CNS(=O)(=O)c1cccc(OC[C@@H](O)CNC2COC3(CCN(S(=O)(=O)c4ccc(F)cc4F)CC3)C2)c1` (stereo partly drawn) [Compound 134, 3-((2S)-3-(8-(2,4-difluorophenylsulfonyl)-1-oxa-8-azaspiro[4.5]decan-3-ylamino)-2-hydroxypropoxy)-N-methylbenzenesulfonamide] it was 37.9 nM; in that of `CNS(=O)(=O)c1cccc(OC[C@@H](O)CNC2COC3(CCN(S(=O)(=O)c4ccc(C)cc4OC)CC3)C2)c1` (stereo partly drawn) [Compound 135, 3-((2S)-2-hydroxy-3-(8-(2-methoxy-4-methylphenylsulfonyl)-1-oxa-8-azaspiro[4.5]decan-3-ylamino)propoxy)-N-methylbenzenesulfonamide], 33.3 nM; in that of `CCOc1ccc(S(=O)(=O)N2CCC3(CC2)CC(NC[C@H](O)COc2cccc(S(=O)(=O)NC)c2)CO3)cc1` (stereo partly drawn) [Compound 136, 3-((2S)-3-(8-(4-ethoxyphenylsulfonyl)-1-oxa-8-azaspiro[4.5]decan-3-ylamino)-2-hydroxypropoxy)-N-methylbenzenesulfonamide], 23.5 nM.
Consider `CNS(=O)(=O)c1cccc(OC[C@@H](O)CNC2COC3(CCN(S(=O)(=O)c4ccc(OC(C)C)cc4)CC3)C2)c1` (stereo partly drawn) [Compound 137, 3-((2S)-2-hydroxy-3-(8-(4-isopropoxyphenylsulfonyl)-1-oxa-8-azaspiro[4.5]decan-3-ylamino)propoxy)-N-methylbenzenesulfonamide], for which the IC50 came out at 23.8 nM.
With `CNS(=O)(=O)c1cccc(OC[C@@H](O)CNC2COC3(CCN(S(=O)(=O)c4cc(Cl)cc(Cl)c4)CC3)C2)c1` (stereo partly drawn) [Compound 138, 3-((2S)-3-(8-(3,5-dichlorophenylsulfonyl)-1-oxa-8-azaspiro[4.5]decan-3-ylamino)-2-hydroxypropoxy)-N-methylbenzenesulfonamide] the figure was 14.2 nM; with `CNS(=O)(=O)c1cccc(OC[C@@H](O)CNC2COC3(CCN(S(=O)(=O)c4cccc(Cl)c4F)CC3)C2)c1` (stereo partly drawn) [Compound 139, 3-((2S)-3-(8-(3-chloro-2-fluorophenylsulfonyl)-1-oxa-8-azaspiro[4.5]decan-3-ylamino)-2-hydroxypropoxy)-N-methylbenzenesulfonamide], 10.2 nM.
`CNS(=O)(=O)c1cccc(OC[C@@H](O)CNC2COC3(CCN(S(=O)(=O)c4cc(Cl)ccc4Cl)CC3)C2)c1` (stereo partly drawn) [Compound 140, 3-((2S)-3-(8-(2,5-dichlorophenylsulfonyl)-1-oxa-8-azaspiro[4.5]decan-3-ylamino)-2-hydroxypropoxy)-N-methylbenzenesulfonamide]: the IC50 amounted to 11.3 nM.
Regarding `CNS(=O)(=O)c1cccc(OC[C@@H](O)CNC2COC3(CCN(S(=O)(=O)c4ccc(F)c(F)c4)CC3)C2)c1` (stereo partly drawn) [Compound 141, 3-((2S)-3-(8-(3,4-difluorophenylsulfonyl)-1-oxa-8-azaspiro[4.5]decan-3-ylamino)-2-hydroxypropoxy)-N-methylbenzenesulfonamide], the IC50 worked out at 35.1 nM.
For `CNS(=O)(=O)c1cccc(OC[C@@H](O)CNC2COC3(CCN(S(=O)(=O)c4cccc(Cl)c4Cl)CC3)C2)c1` (stereo partly drawn) [Compound 142, 3-((2S)-3-(8-(2,3-dichlorophenylsulfonyl)-1-oxa-8-azaspiro[4.5]decan-3-ylamino)-2-hydroxypropoxy)-N-methylbenzenesulfonamide], the 50% inhibitory concentration (IC50) was found to be 16.8 nM.
In the case of `CNS(=O)(=O)c1cccc(OC[C@@H](O)CNC2COC3(CCN(S(=O)(=O)c4cccc(Cl)c4C)CC3)C2)c1` (stereo partly drawn) [Compound 143, 3-((2S)-3-(8-(3-chloro-2-methylphenylsulfonyl)-1-oxa-8-azaspiro[4.5]decan-3-ylamino)-2-hydroxypropoxy)-N-methylbenzenesulfonamide] it was 17.1 nM; in that of `CNS(=O)(=O)c1cccc(OC[C@@H](O)CNC2COC3(CCN(S(=O)(=O)c4cc(Cl)ccc4F)CC3)C2)c1` (stereo partly drawn) [Compound 144, 3-((2S)-3-(8-(5-chloro-2-fluorophenylsulfonyl)-1-oxa-8-azaspiro[4.5]decan-3-ylamino)-2-hydroxypropoxy)-N-methylbenzenesulfonamide], 12.2 nM.
As to `CNS(=O)(=O)c1cccc(OC[C@@H](O)CNC2COC3(CCN(S(=O)(=O)c4cc(Cl)ccc4C#N)CC3)C2)c1` (stereo partly drawn) [Compound 145, 3-((2S)-3-(8-(5-chloro-2-cyanophenylsulfonyl)-1-oxa-8-azaspiro[4.5]decan-3-ylamino)-2-hydroxypropoxy)-N-methylbenzenesulfonamide], the half-maximal inhibitory concentration (IC50) came out at 21.5 nM.
With `CNS(=O)(=O)c1cccc(OC[C@@H](O)CNC2COC3(CCN(S(=O)(=O)c4ccc5nc[nH]c5c4)CC3)C2)c1` (stereo partly drawn) [Compound 146, 3-((2S)-3-(8-(1H-benzo[d]imidazol-6-ylsulfonyl)-1-oxa-8-azaspiro[4.5]decan-3-ylamino)-2-hydroxypropoxy)-N-methylbenzenesulfonamide] the figure was 36.2 nM; with `CNS(=O)(=O)c1cccc(OC[C@@H](O)CNC2COC3(CCN(S(=O)(=O)c4ccc(OC)c(C)c4)CC3)C2)c1` (stereo partly drawn) [Compound 147, 3-((2S)-2-hydroxy-3-(8-(4-methoxy-3-methylphenylsulfonyl)-1-oxa-8-azaspiro[4.5]decan-3-ylamino)propoxy)-N-methylbenzenesulfonamide], 13 nM; with `CNS(=O)(=O)c1cccc(OC[C@@H](O)CNC2COC3(CCN(S(=O)(=O)c4cc(Cl)ccc4OC)CC3)C2)c1` (stereo partly drawn) [Compound 148, 3-((2S)-3-(8-(5-chloro-2-methoxyphenylsulfonyl)-1-oxa-8-azaspiro[4.5]decan-3-ylamino)-2-hydroxypropoxy)-N-methylbenzenesulfonamide], 11 nM.
With `CNS(=O)(=O)c1cccc(OC[C@@H](O)CNC2COC3(CCN(S(=O)(=O)c4ccc(F)c(C)c4)CC3)C2)c1` (stereo partly drawn) [Compound 149, 3-((2S)-3-(8-(4-fluoro-3-methylphenylsulfonyl)-1-oxa-8-azaspiro[4.5]decan-3-ylamino)-2-hydroxypropoxy)-N-methylbenzenesulfonamide] the figure was 20.6 nM; with `CNS(=O)(=O)c1cccc(OC[C@@H](O)CNC2COC3(CCN(S(=O)(=O)c4cc(C)ccc4F)CC3)C2)c1` (stereo partly drawn) [Compound 150, 3-((2S)-3-(8-(2-fluoro-5-methylphenylsulfonyl)-1-oxa-8-azaspiro[4.5]decan-3-ylamino)-2-hydroxypropoxy)-N-methylbenzenesulfonamide], 13.5 nM; with `CNS(=O)(=O)c1cccc(OC[C@@H](O)CNC2COC3(CCN(S(=O)(=O)c4ccc(Cl)c(C)c4)CC3)C2)c1` (stereo partly drawn) [Compound 151, 3-((2S)-3-(8-(4-chloro-3-methylphenylsulfonyl)-1-oxa-8-azaspiro[4.5]decan-3-ylamino)-2-hydroxypropoxy)-N-methylbenzenesulfonamide], 5.38 nM.
With `CNS(=O)(=O)c1cccc(OC[C@@H](O)CNC2COC3(CCN(S(=O)(=O)c4cn(C)nc4C(F)(F)F)CC3)C2)c1` (stereo partly drawn) [Compound 152, 3-((2S)-2-hydroxy-3-(8-(1-methyl-3-(trifluoromethyl)-1H-pyrazol-4-ylsulfonyl)-1-oxa-8-azaspiro[4.5]decan-3-ylamino)propoxy)-N-methylbenzenesulfonamide] the figure was 90.7 nM; with `CNS(=O)(=O)c1cccc(OC[C@@H](O)CNC2COC3(CCN(S(=O)(=O)c4ccc(OC)c(OC)c4)CC3)C2)c1` (stereo partly drawn) [Compound 153, 3-((2S)-3-(8-(3,4-dimethoxyphenylsulfonyl)-1-oxa-8-azaspiro[4.5]decan-3-ylamino)-2-hydroxypropoxy)-N-methylbenzenesulfonamide], 43.6 nM.
For the compound `CNS(=O)(=O)c1cccc(OC[C@@H](O)CNC2COC3(CCN(S(=O)(=O)c4cc(C)ccc4C)CC3)C2)c1` (stereo partly drawn) [Compound 154, 3-((2S)-3-(8-(2,5-dimethylphenylsulfonyl)-1-oxa-8-azaspiro[4.5]decan-3-ylamino)-2-hydroxypropoxy)-N-methylbenzenesulfonamide], the half-maximal inhibitory concentration (IC50) came to 34.4 nM.
